Assay results: ChEMBL document CHEMBL1154164, “Design, synthesis, biological evaluation, and NMR studies of a new series of arylsulfones as selective and potent matrix metalloproteinase-12 inhibitors” (J Med Chem, 2009)

Legend:
[1] = molecular target: T1, Macrophage metalloelastase (Homo sapiens, UniProt P39900); assay: Inhibition of autoactivated human pro-MMP12 after 4 hrs by fluorimetry
[2] = molecular target: Matrix metalloproteinase-9 (Homo sapiens, UniProt P14780); assay: Inhibition of para-aminophenylmercuric acetate-activated human recombinant pro-MMP9 catalytic domain after 4 hrs by fluorimetry
Neutrophil collagenase = Neutrophil collagenase (Homo sapiens, UniProt P22894); assay: Inhibition of para-aminophenylmercuric acetate-activated human pro-MMP8 after 4 hrs by fluorimetry
Stromelysin-1 = Stromelysin-1 (Homo sapiens, UniProt P08254); assay: Inhibition of trypsin activated human pro-MMP3 after 4 hrs by fluorimetry
[3] = molecular target: 72 kDa type IV collagenase (Homo sapiens, UniProt P08253); assay: Inhibition of para-aminophenylmercuric acetate-activated human recombinant pro-MMP2 catalytic domain after 4 hrs by fluorimetry
Interstitial collagenase = molecular target: T2, Interstitial collagenase (Homo sapiens, UniProt P03956); assay: Inhibition of para-aminophenylmercuric acetate-activated human pro-MMP1 after 4 hrs by fluorimetry
T2 sequence (P03956 whole entry): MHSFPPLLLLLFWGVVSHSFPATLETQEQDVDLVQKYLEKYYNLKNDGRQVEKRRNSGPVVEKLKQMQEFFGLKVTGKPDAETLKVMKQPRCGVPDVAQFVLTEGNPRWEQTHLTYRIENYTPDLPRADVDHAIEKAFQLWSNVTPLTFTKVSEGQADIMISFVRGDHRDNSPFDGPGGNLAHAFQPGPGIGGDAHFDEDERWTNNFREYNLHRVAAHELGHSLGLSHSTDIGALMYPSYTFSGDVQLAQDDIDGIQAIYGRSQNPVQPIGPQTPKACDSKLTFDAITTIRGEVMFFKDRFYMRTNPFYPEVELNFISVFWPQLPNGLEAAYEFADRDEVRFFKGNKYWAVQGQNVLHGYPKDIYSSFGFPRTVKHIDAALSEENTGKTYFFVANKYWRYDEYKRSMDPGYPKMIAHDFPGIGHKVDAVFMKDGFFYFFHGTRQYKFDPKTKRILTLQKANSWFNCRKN

Collagenase 3 = Collagenase 3 (Homo sapiens, UniProt P45452); assay: Inhibition of para-aminophenylmercuric acetate-activated human pro-MMP13 after 4 hrs by fluorimetry
[4] = molecular target: Matrix metalloproteinase-14 (Homo sapiens, UniProt P50281); assay: Inhibition of human recombinant pro-MMP14 catalytic domain after 4 hrs by fluorimetry
[5] = molecular target: Matrix metalloproteinase-16 (Homo sapiens, UniProt P51512); assay: Inhibition of human recombinant pro-MMP16 catalytic domain after 4 hrs by fluorimetry
[6] = molecular target: T1, Macrophage metalloelastase; assay: Inhibition of autoactivated human pro-MMP12 after 30 mins preincubation by fluorimetry
[7] = molecular target: T1, Macrophage metalloelastase; assay: Inhibition of autoactivated human pro-MMP12 after 1 hr preincubation by fluorimetry

Stromelysin-1, sequence (P08254 whole entry, the tested form may be a part): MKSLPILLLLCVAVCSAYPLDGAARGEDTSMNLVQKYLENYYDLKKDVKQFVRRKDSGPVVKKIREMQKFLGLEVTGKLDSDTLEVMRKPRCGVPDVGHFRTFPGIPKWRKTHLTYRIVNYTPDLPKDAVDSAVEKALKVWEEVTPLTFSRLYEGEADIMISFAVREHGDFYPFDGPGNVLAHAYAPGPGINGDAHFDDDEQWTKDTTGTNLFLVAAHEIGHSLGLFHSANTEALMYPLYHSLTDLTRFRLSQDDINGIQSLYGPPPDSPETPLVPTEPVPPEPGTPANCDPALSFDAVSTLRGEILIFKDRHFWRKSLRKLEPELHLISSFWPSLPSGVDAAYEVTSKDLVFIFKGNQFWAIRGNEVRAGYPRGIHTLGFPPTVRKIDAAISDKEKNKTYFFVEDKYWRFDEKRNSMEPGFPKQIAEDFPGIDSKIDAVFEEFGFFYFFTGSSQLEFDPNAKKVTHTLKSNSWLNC
Neutrophil collagenase, sequence (P22894 whole entry): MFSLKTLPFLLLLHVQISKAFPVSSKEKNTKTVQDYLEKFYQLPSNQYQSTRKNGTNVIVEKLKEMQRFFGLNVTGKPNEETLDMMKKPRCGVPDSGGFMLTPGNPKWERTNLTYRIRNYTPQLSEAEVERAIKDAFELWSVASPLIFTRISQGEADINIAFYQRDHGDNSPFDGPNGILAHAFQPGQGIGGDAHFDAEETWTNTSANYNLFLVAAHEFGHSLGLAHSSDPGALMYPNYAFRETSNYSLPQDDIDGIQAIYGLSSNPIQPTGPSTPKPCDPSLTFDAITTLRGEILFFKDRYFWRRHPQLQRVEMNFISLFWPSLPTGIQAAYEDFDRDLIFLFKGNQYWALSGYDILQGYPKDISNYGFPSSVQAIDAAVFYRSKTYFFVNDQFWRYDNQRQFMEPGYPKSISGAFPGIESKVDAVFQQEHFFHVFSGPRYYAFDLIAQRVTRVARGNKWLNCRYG
Matrix metalloproteinase-16, sequence (P51512 whole entry, the tested form may be a part): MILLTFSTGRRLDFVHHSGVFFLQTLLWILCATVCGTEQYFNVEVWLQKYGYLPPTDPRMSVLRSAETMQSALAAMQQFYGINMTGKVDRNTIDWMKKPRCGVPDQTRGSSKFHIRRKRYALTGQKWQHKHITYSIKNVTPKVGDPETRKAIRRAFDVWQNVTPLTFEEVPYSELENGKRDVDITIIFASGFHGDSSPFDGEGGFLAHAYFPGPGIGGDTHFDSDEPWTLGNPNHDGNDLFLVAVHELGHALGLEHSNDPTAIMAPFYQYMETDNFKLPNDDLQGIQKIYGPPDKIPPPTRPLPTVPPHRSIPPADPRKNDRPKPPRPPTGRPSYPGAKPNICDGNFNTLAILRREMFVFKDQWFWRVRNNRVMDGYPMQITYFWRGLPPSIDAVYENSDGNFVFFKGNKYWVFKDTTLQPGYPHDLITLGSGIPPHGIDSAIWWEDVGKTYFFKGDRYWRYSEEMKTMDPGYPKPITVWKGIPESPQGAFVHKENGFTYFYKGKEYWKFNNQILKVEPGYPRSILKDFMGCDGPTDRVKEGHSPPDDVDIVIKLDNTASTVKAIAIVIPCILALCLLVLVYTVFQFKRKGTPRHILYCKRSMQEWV
T1 sequence (P39900 whole entry, the tested form may be a part): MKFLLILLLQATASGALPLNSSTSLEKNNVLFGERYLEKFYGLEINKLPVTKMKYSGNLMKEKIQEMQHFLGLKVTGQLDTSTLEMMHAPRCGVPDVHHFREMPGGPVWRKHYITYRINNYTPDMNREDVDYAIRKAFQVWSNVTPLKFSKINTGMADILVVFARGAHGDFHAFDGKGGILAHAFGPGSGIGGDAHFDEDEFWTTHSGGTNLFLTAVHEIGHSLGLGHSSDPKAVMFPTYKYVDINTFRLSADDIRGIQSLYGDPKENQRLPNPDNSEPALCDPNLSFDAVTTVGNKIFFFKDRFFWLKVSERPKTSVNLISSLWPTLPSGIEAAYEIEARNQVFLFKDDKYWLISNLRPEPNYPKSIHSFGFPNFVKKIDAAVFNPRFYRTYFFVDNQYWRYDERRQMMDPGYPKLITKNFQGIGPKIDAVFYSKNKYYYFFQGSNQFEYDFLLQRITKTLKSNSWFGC
72 kDa type IV collagenase, sequence (P08253 whole entry, the tested form may be a part): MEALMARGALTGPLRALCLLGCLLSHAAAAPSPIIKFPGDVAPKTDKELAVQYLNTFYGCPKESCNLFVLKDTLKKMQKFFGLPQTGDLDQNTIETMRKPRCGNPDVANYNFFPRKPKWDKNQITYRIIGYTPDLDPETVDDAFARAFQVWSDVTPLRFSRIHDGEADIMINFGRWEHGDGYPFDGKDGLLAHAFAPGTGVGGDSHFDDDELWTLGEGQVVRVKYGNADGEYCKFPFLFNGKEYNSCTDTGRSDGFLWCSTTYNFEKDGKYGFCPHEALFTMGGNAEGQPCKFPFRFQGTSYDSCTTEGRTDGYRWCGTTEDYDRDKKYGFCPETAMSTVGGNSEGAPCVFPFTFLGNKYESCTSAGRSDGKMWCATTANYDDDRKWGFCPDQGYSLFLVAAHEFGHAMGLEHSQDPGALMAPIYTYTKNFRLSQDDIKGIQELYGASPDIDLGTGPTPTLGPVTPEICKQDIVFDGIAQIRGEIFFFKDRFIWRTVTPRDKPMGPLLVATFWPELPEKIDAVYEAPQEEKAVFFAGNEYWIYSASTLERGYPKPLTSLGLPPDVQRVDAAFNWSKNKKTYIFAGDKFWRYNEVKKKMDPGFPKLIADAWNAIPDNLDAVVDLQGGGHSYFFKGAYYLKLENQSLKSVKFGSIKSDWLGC
Matrix metalloproteinase-9, sequence (P14780 whole entry, the tested form may be a part): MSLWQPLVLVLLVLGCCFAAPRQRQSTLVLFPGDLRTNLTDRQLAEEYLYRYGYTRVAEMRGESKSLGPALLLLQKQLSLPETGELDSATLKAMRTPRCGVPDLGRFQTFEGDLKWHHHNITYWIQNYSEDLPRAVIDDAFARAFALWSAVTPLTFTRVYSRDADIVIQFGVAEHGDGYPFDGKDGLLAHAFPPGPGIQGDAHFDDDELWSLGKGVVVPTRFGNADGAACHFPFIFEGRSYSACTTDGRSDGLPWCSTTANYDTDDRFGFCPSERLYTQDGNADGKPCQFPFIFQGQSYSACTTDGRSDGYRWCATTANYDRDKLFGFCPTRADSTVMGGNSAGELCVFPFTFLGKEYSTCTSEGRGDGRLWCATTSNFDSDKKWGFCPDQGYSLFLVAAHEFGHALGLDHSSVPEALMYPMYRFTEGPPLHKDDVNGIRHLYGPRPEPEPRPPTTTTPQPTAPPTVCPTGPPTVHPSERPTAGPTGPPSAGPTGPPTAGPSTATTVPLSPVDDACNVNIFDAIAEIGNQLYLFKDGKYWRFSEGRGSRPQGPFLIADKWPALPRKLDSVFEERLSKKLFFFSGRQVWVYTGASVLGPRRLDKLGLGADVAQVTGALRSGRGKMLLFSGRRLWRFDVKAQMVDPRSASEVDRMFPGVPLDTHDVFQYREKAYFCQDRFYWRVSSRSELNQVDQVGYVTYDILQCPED

Structure (SMILES)	IC50 [1]	IC50 [2]	IC50 (Neutrophil collagenase)	IC50 (Stromelysin-1)	IC50 [3]	IC50 (Interstitial collagenase)	IC50 (Collagenase 3)	IC50 [4]	IC50 [5]	IC50 [6]	IC50 [7]
COc1ccc(Oc2ccc(S(=O)(=O)c3ccccc3CC(=O)NO)cc2)cc1	0.2 nM	0.8 nM	5.1 nM	21 nM	3.5 nM	3500 nM	4.1 nM	33 nM	32 nM	0.89 nM	0.85 nM
COc1ccc(S(=O)(=O)c2ccccc2CC(=O)O)cc1	89000 nM	> 100000 nM	74000 nM	> 100000 nM	58000 nM	> 100000 nM	55000 nM	77000 nM	93000 nM		
COc1ccc(-c2ccc(S(=O)(=O)c3ccccc3C(C)C(=O)NO)cc2)cc1 (racemic)	2.7 nM	69 nM	54 nM	1400 nM	7 nM	> 10000 nM	12 nM	360 nM	150 nM		
CC(C(=O)NO)c1ccccc1S(=O)(=O)c1ccc(-c2ccccc2)cc1 (racemic)	6 nM	340 nM	390 nM	5600 nM	73 nM	12000 nM	74 nM	860 nM	470 nM		
CC(C)ON([C@@H](C(=O)O)C(C)C)S(=O)(=O)c1ccc(-c2ccccc2)cc1	410 nM	24000 nM	2000 nM	54000 nM	1500 nM	> 100000 nM	7900 nM	10000 nM	18000 nM		
CC(C(=O)O)c1ccccc1S(=O)(=O)c1ccc(-c2ccccc2)cc1 (racemic)	1900 nM	20000 nM	1900 nM	> 100000 nM	2400 nM	51000 nM	1800 nM	18000 nM	6300 nM		
COc1ccc(Oc2ccc(S(=O)(=O)c3ccccc3C(=O)NO)cc2)cc1	920 nM	410 nM	1900 nM	22000 nM	1300 nM	> 10000 nM	2700 nM	4000 nM	6000 nM		
O=C(Cc1ccccc1S(=O)(=O)c1ccc(-c2ccccc2)cc1)NO	6 nM	310 nM	370 nM	23000 nM	38 nM	29000 nM	62 nM	940 nM	220 nM		
COc1ccc(-c2ccc(S(=O)(=O)c3ccccc3CC(=O)O)cc2)cc1	140 nM	730 nM	99 nM	7500 nM	47 nM	4400 nM	78 nM	740 nM	730 nM	170 nM	150 nM
COc1ccc(-c2ccc(S(=O)(=O)c3ccccc3CC(=O)NO)cc2)cc1	4.8 nM	94 nM	120 nM	1600 nM	9.7 nM	8300 nM	25 nM	710 nM	130 nM		
COc1ccc(S(=O)(=O)c2ccccc2CC(=O)NO)cc1	32 nM	98 nM	280 nM	730 nM	230 nM	4100 nM	84 nM	200 nM	130 nM		
COc1ccc(Oc2ccc(S(=O)(=O)c3ccccc3CC(=O)O)cc2)cc1	380 nM	420 nM	1200 nM	> 10000 nM	710 nM	> 10000 nM	940 nM	8100 nM	6500 nM		
O=C(NO)c1ccccc1S(=O)(=O)c1ccc(-c2ccccc2)cc1	590 nM	7700 nM	1000 nM	45000 nM	1300 nM	73000 nM	1400 nM	8300 nM	5100 nM		
COc1ccc(S(=O)(=O)c2ccccc2C(=O)NO)cc1	14000 nM	24000 nM	72000 nM	> 50000 nM	35000 nM	> 100000 nM	28000 nM	25000 nM	31000 nM		
C[S+]([O-])c1ccc(Oc2ccc(S(=O)(=O)c3ccccc3C(=O)NO)cc2)cc1 (stereo not given)	5800 nM	51000 nM	9200 nM	60000 nM	9900 nM	> 200000 nM	20000 nM	120000 nM	110000 nM		
O=C(NO)c1ccccc1S(=O)(=O)c1ccc(Oc2ccccc2)cc1	1200 nM	690 nM	620 nM	27000 nM	1200 nM	> 10000 nM	2700 nM	1300 nM	1300 nM		
COc1ccc(-c2ccc(S(=O)(=O)c3ccccc3C(=O)NO)cc2)cc1	70 nM	930 nM	87 nM	4000 nM	100 nM	28000 nM	260 nM	1300 nM	1200 nM		
COc1ccc(-c2ccc(S(=O)(=O)c3ccccc3C(C)C(=O)O)cc2)cc1 (racemic)	310 nM	3000 nM	290 nM	8000 nM	190 nM	> 10000 nM	190 nM	2100 nM	1100 nM		
CC(C)ON([C@@H](C(=O)NO)C(C)C)S(=O)(=O)c1ccc(-c2ccccc2)cc1	0.2 nM				0.8 nM	490 nM	4.1 nM		51 nM		
O=C(O)Cc1ccccc1S(=O)(=O)c1ccc(-c2ccccc2)cc1	1500 nM	7300 nM	290 nM	74000 nM	510 nM	23000 nM	260 nM	5400 nM	4300 nM		
